Measured values taken from patent US12202861B2, “Inducible, tunable, and multiplex human gene regulation using CRISPR-Cpf1” (The General Hospital Corporation, priority 2017, dated 2025).

Assays:
Assay type in all cases: cell-based, human
[1] = tested on: NPY1R; assay: RT-qPCR activation of endogenous NPY1R gene promoter in HEK293 cells; details: single crRNA
Experimental: (§1) FIGS. 1A-1E. Targeted human endogenous gene regulation using individual crRNAs with dLbCpf1-based activators • (A) Schematic showing direct dLbCpf1-VPR and dLbCpf-p65 activator fusion proteins. • (B) Activities of dLbCpf1-p65 or dLbCpf1-VPR using single crRNAs at three endogenous human genes (HBB, AR, and NPY1R) in human HEK293 cells. Relative activation of the indicated gene promoters was measured by RT-qPCR. Three separate individual crRNAs were targeted within promoter sequence 1 kb upstream of the transcription start site for each gene. Relative mRNA expression is calculated by comparison to the control sample in which no crRNA is expressed. (C) Analysis of various crRNAs targeted to the human CD5 and CD22 promoters. 32 crRNAs (16 for each gene) were designed to target sites located within promoter sequences 1 kb upstream or 500 bps downstream of the TSS of each gene. Repetitive sequences were not targeted. After 72 hours post-transfection, cells were stained with fluorescently labeled antibody for CD5 or CD22 protein and fluorescent-positive cells were quantified by flow cytometry. Error bars represent s.e.m. for three biological replicates. […] (D) Schematic illustrating drug-inducible bi-partite dLbCpf1-based activator fusion proteins. dLbCpf1 is fused to one to four DmrA domains and VPR or p65 is fused to a DmrC domain. Because DmrA and DmrC interact only in the presence of an A/C-heterodimerizer drug (red diamond), the bi-partite activator is only reconstituted in the presence of the drug. (E) Activities of drug-inducible bi-partite dLbCpf1-based activators using single crRNAs at three endogenous human genes (HBB, AR, and NPY1R) in human HEK293 cells. Relative activation of the indicated gene promoters was measured by RT-qPCR. […] Data shown in (B) and (E) represent three biological independent replicates and error bars indicate standard deviation (SD) of three technical replicates.
(§2) (A) Schematic of an expression cassette designed to express multiple gRNAs encoded on a single transcript. The arrows indicate cleavage sites being processed by the RNase activity of dLbCpf1. (B) Schematic illustrating multiplex expression of three crRNAs each targeted to a different endogenous gene promoter in a single cell. (C) Simultaneous activation of three endogenous human genes using crRNAs expressed from a multiplex transcript or from individual transcripts with dLbCpf1-VPR direct fusions (left panel), dLbCpf1-DmrA(×4) and DmrC-VPR fusions (middle panel), and dLbCpf1-DmrA(×4) and DmrC-p65 fusions (right panel). Transcripts were measured in HEK293 cells using RT-qPCR with relative mRNA expression calculated by comparison to the control sample in which no crRNA is expressed. (D) Activities of MST crRNA with different dLbCpf1-based activators in human U20S cells. Graphs showing activation of three endogenous human genes with dLbCpf1-VPR direct fusions, dLbCpf1-DmrA(×4) and DmrC-p65 fusions, and dLbCpf1-DmrA(×4) and DmrC-VPR fusions and crRNAs expressed from a multiplex single transcript (MST) or from transcripts encoding a single crRNA. RNA expression was measured by RT-qPCR and relative expression shown was calculated by comparison to a control sample in which no crRNA is expressed. (E) Schematic illustrating multiplex expression of three crRNAs each targeted to the same endogenous gene promoter in the same cell. (F) Activities of direct dLbCpf1-p65 or dLbCpf1-VPR fusions with sets of three crRNAs expressed from a multiplex transcript or from individual transcripts on the HBB, AR, or NPY1R endogenous gene promoters. Transcripts were measured in HEK293 cells using RT-qPCR with relative mRNA expression calculated by comparison to the control sample in which no crRNA is expressed. (G) Activities of dLbCpf1-DmrA(×4) and DmrC-VPR fusions or with dLbCpf1-DmrA(×4) and DmrC-p65 fusions with sets of three crRNAs expressed from a multiplex transcript or from individual transcripts on the HBB, AR, or NPY1R endogenous gene promoters. […]

[2] = tested on: AR; assay: RT-qPCR activation of endogenous AR gene promoter in HEK293 cells; details: bi-partite, with dLbCpf1 fusions harboring two, three or four DmrA domains, single crRNA
Experimental: as §1
(A) Schematic of an expression cassette designed to express multiple gRNAs encoded on a single transcript. The arrows indicate cleavage sites being processed by the RNase activity of dLbCpf1. (B) Schematic illustrating multiplex expression of three crRNAs each targeted to a different endogenous gene promoter in a single cell. […] Transcripts were measured in HEK293 cells using RT-qPCR with relative mRNA expression calculated by comparison to the control sample in which no crRNA is expressed. […] RNA expression was measured by RT-qPCR and relative expression shown was calculated by comparison to a control sample in which no crRNA is expressed. […] Transcripts were measured in HEK293 cells using RT-qPCR with relative mRNA expression calculated by comparison to the control sample in which no crRNA is expressed. […]

[3] = tested on: HBB; assay: RT-qPCR activation of endogenous HBB gene promoter in HEK293 cells; details: single crRNA
Experimental: as §1, §2

[4] = tested on: HBB, AR, and NPY1R; assay: Simultaneous (multiplex) activation of three endogenous genes in HEK293 cells, RT-qPCR; details: multiplex transcript vs single crRNA, HEK293, across the dLbCpf1-based activators
Text: (A) Schematic of an expression cassette designed to express multiple gRNAs encoded on a single transcript. The arrows indicate cleavage sites being processed by the RNase activity of dLbCpf1. (B) Schematic illustrating multiplex expression of three crRNAs each targeted to a different endogenous gene promoter in a single cell. (C) Simultaneous activation of three endogenous human genes using crRNAs expressed from a multiplex transcript or from individual transcripts with dLbCpf1-VPR direct fusions (left panel), dLbCpf1-DmrA(×4) and DmrC-VPR fusions (middle panel), and dLbCpf1-DmrA(×4) and DmrC-p65 fusions (right panel). Transcripts were measured in HEK293 cells using RT-qPCR with relative mRNA expression calculated by comparison to the control sample in which no crRNA is expressed. […] RNA expression was measured by RT-qPCR and relative expression shown was calculated by comparison to a control sample in which no crRNA is expressed. […] Transcripts were measured in HEK293 cells using RT-qPCR with relative mRNA expression calculated by comparison to the control sample in which no crRNA is expressed. […] Transcripts were measured in HEK293 cells using RT-qPCR with relative mRNA expression calculated by comparison to the control sample in which no crRNA is expressed. […] Cells were collected at various time points and relative mRNA expression levels were measured by RT-qPCR compared to a negative control. […]

[5] = bi-partite with dLbCpf1-DmrA fusions
[6] = bi-partite, with dLbCpf1 fusions harboring two, three or four DmrA domains

Molecule | dependence of maximal activation on A/C heterodimerizer drug [1, 5] | maximum level of activation relative to direct dLbCpf1-VPR fusions [1, 5] | activation of transcription [1, 6] | activation of transcription [2] | dependence of maximal activation on A/C heterodimerizer drug [3, 5] | maximum level of activation relative to direct dLbCpf1-VPR fusions [3, 5] | activation of transcription [3, 6] | magnitude of activation somewhat lower than with expression of a single crRNA [4]
DmrC-VPR: CAG-DmrC-NLS-FLAG-VPR; DmrC dimerization domain fused to VPR activator (SEQ ID NO: 49) | dependent on the presence of the A/C heterodimerizer drug | approximately half | activation | lack of an effect | dependent on the presence of the A/C heterodimerizer drug | approximately half | activation | 
multiplex crRNAs: three LbCpf1 crRNAs (HBB, AR, NPY1R) encoded on a single U6-driven transcript (SEQ ID NO: 58) (nucleic acid, misc_feature 1..397 crRNAs from Figure 2b) guide: GAGGGCCTATTTCCCATGATTCCTTCATATTTGCATATACGATACAAGGCTGTTAGAGAGATAATTAGAATTAATTTGACTGTAAACACAAAGATATTAGTACAAAATACGTGACGTAGAAAGTAATAATTTCTTGGGTAGTTTGCAGTTTTAAAATTATGTTTTAAAATGGACTATCATATGCTTACCGTAACTTGAAAGTATTTCGATTTCTTGGCTTTATATATCTTGTGGAAAGGACGAAACACCGAATTTCTACTAAGTGTAGATTACTGATGGTATGGGGCCAAAATTTCTACTAAGTGTAGATCTCTAGGAACCCTCAGCCCCAATTTCTACTAAGTGTAGATAAGCCTCGGGAAACTGCCCTAATTTCTACTAAGTGTAGATTTTTTTT |  |  |  |  |  |  |  | 18 to 55%
